Reference: US7569690B2, “Process for producing oxycarbonyl-substituted piperazine derivative” (Toray Fine Chemicals Co., Ltd., priority 2002, dated 2009)

Assays:
[1] = Thermal stability of the oxycarbonyl-substituted piperazine derivative (standing at temperature, liquid chromatography purity); assay type: physicochemical
Procedure: It was confirmed that the stability of the compound is greatly affected by the temperature and the heating time period.
It was noticed that when, for example, 1-benzyloxycarbonyl-3-methylpiperazine with a purity of 99.3 liquid chromatography area % was allowed to stand at 120° C., 160° C. or 200° C. for 12 hours, their liquid chromatography purity declined to 99.0 liquid chromatography area %, 95.6 liquid chromatography area % and 59.7 liquid chromatography area % respectively, and that the liquid chromatography purity of 1-benzyl-4-benzyloxycarbonyl-2-methylpiperazine corresponding to the compound represented by the general formula (7) rose to 0.2 liquid chromatography area %, 3.2 liquid chromatography area % and 30.7 liquid chromatography area % respectively.
Furthermore, when the compound was allowed to stand at 160° C. for 1 hour, the purity was 98.8 liquid chromatography area %, and it can be seen that the decomposition rate was small compared with the case of 12 hours.
For measuring the contents of the impurities contained in the oxycarbonyl-substituted piperazine derivative represented by the general formula (2), liquid chromatography is used. The analytical column for liquid chromatography used for analysis is a column using an octadecyl -based composition as a packing material. Particularly the use of Capcellpak C18, 120 angstroms, 5 μm, 4.6 mm×150 mm (Shiseido) is desirable.
The mobile phase is 5 mM sodium dodecyl sulfate (hereinafter abbreviated as SDS) aqueous solution (pH 2.5, phosphoric acid)/acetonitrile, and a gradient method for changing the composition with the lapse of time is used for analysis. That is, the acetonitrile content in the mobile phase is kept at 31 vol % from the start of analysis to 15 minutes later, and the acetonitrile content is then increased at a constant rate up to 45 vol %, taking 10 minutes, being kept at 45 vol % from 25 minutes later to 40 minutes later. The detector used is a UV measuring instrument, and the detection wavelength is 210 nm. The detection wavelength is very important, and if the detection wavelength is changed, the analyzed value may change. The reason is that the maximum wavelength of UV absorption changes depending on the compound. In this system, it is desirable that the wavelength is from 210 to 230 nm at which the ratios of the absorption sensitivity of the compound represented by the general formula (2) to the absorption sensitivities the compounds represented by the general formulae (5) to (8) are from 0.6 to 1.5. Analysis is made at a column oven temperature of 40° C. In the case where analysis is made under the above-mentioned analytical conditions, the retention times of 1-benzyloxycarbonyl-3-methylpiperazine and the impurities corresponding to the general formulae (5) to (8), i.e., 1,4-bis(carbobenzyloxy)-2-methylpiperazine, 1-benzyl-3-methylpiperazine, 4-benzyloxycarbonyl-1-benzyl-2-methylpiperazine and benzyl alcohol were 23.1 minutes, 31.0 minutes, 31.0 minutes, 30.0 minutes and 2.7 minutes respectively. The values of their area percentages can be used to obtain the impurity contents.

[2] = cited from earlier work

Structure (SMILES) | Liquid chromatography purity of decomposition product 1-benzyl-4-benzyloxycarbonyl-2-methylpiperazine after standing ([1]; 120° C. for 12 hours) | Liquid chromatography purity after standing ([1]; 120° C. for 12 hours, starting purity 99.3 liquid chromatography area %) | Liquid chromatography purity after standing ([1]; 160° C. for 1 hour) | Liquid chromatography purity of decomposition product 1-benzyl-4-benzyloxycarbonyl-2-methylpiperazine after standing ([1]; 160° C. for 12 hours) | Liquid chromatography purity after standing ([1]; 160° C. for 12 hours, starting purity 99.3 liquid chromatography area %) | Liquid chromatography purity of decomposition product 1-benzyl-4-benzyloxycarbonyl-2-methylpiperazine after standing ([1]; 200° C. for 12 hours) | Liquid chromatography purity after standing ([1]; 200° C. for 12 hours, starting purity 99.3 liquid chromatography area %) | pKa [2]
CC1CN(C(=O)OCc2ccccc2)CCN1 (stereo not drawn) [1-benzyloxycarbonyl-3-methylpiperazine] | 0.2 liquid chromatography area % | 99.0 liquid chromatography area % | 98.8 liquid chromatography area % | 3.2 liquid chromatography area % | 95.6 liquid chromatography area % | 30.7 liquid chromatography area % | 59.7 liquid chromatography area % | 
COc1ccccn1 [2-methoxypyridine] |  |  |  |  |  |  |  | 6.62
c1cn[nH]c1 [pyrazole] |  |  |  |  |  |  |  | 2.5
